This note sets out measurements from patent US20250353891A1 (MEDIMMUNE LIMITED, priority 2022, published 2025).

The target in assay [1] is human glucagon receptor (hGCGR) (Homo sapiens, UniProt P47871). Description: cAMP production (HTRF) in CHO cells expressing hGCGR. On the set-up: expressed in transfected cells. To be noted: geometric mean, read-out: hGluc-R EC50. The class given is cell-based. The gist of the method: (§1)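 Cells were resuspended in assay buffer at batch-optimized density, typically 1×10^5 cells/mL for hGLP-1R and 2×10^5 cells/mL for hGCGR. After 30 min incubation at room temperature with compound, cAMP was measured by two-step HTRF. EC50 values came from 4-parameter logistic fits of % Delta F.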
Sequence of human glucagon receptor (hGCGR) (P47871 26-477): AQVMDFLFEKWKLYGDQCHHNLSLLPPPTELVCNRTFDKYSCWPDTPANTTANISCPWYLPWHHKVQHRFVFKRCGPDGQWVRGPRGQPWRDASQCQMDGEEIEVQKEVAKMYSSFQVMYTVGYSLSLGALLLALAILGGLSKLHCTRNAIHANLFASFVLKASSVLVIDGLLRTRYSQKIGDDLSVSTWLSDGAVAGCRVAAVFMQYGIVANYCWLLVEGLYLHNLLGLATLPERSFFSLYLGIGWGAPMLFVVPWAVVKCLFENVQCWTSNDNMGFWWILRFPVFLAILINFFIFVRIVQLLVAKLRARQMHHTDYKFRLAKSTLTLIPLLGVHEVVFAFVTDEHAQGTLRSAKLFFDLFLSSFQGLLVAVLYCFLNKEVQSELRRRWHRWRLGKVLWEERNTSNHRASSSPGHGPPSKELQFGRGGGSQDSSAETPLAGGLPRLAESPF
Background: Cyclic AMP is a second messenger, typically raised through Gs and lowered through Gi signalling.

Assay [2] addresses human GLP-1 receptor (hGLP-1R) (Homo sapiens, UniProt P43220). Description: cAMP production (HTRF) in CHO cells expressing hGLP-1R. Format: cell-based. On the set-up: expressed in transfected cells. To be noted: for EC50: geometric mean, read-out: hGLP-1R EC50; for % Relative Potency Ratio: % GLP-1R activity relative to GLP-1 / % GlucR activity relative to glucagon. The gist of the method:
as §1

Setting [3] is: Table 6, peptides modified at position 17, cAMP in CHO hGCGR cells.
The mark [4] stands for this setting: Table 6, peptides modified at position 17, cAMP in CHO hGLP-1R cells.

Like-named read-outs stand apart in the source and are kept apart here. Starred links: 1 amine or outer side, 2 acyl side, 3 side chain; linkers in the order of their positions; H or OH if unused. Non-standard residues stand in square brackets, D forms with d. Residues, ends and D or L forms follow the SMILES beside them. Groups on a side chain read outwards from the residue. *: point of attachment. C20 diacid = O=C(O)CCCCCCCCCCCCCCCCCCC(=O)*; C18 diacid = O=C(O)CCCCCCCCCCCCCCCCC(=O)*; γGlu = O=C(O)[C@H](CCC(=O)[*:2])N[*:1]; αMeF = C[C@](N)(Cc1ccccc1)C(=O)O; AEEA = NCCOCCOCC(=O)O; Aib = CC(C)(N)C(=O)O Bounds are passed on as bounds.

Broadly, the EC50 is the concentration needed to bring the measured effect to its halfway point.

Sequence of human GLP-1 receptor (hGLP-1R) (P43220 24-463): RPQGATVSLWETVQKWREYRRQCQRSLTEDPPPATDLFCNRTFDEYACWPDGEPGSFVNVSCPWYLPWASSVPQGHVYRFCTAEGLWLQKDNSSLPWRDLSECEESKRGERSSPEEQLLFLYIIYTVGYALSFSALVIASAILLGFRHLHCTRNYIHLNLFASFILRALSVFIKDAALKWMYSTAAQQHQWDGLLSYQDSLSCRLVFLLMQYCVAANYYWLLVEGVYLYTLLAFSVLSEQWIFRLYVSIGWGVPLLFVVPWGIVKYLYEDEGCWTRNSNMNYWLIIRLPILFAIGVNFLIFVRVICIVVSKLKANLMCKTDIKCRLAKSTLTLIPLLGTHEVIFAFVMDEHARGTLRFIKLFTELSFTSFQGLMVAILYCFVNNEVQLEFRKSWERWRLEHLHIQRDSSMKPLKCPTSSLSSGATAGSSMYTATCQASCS

As for `CC(C)C[C@H](NC(=O)[C@H](CC(C)C)NC(=O)[C@H](Cc1c[nH]c2ccccc12)NC(=O)[C@H](CCCNC(=N)N)NC(=O)[C@@H](NC(=O)[C@H](Cc1ccccc1)NC(=O)[C@H](CC(=O)O)NC(=O)[C@H](CCC(N)=O)NC(=O)[C@H](C)NC(=O)[C@H](CCCNC(=N)N)NC(=O)[C@H](CCCCNC(=O)CC[C@H](NC(=O)CC[C@H](NC(=O)COCCOCCNC(=O)COCCOCCNC(=O)CC[C@H](NC(=O)CC[C@H](NC(=O)CCCCCCCCCCCCCCCCC(=O)O)C(=O)O)C(=O)O)C(=O)O)C(=O)O)NC(=O)[C@H](CO)NC(=O)[C@H](CC(=O)O)NC(=O)[C@H](CC(C)C)NC(=O)[C@](C)(Cc1ccccc1)NC(=O)[C@H](CCCCN)NC(=O)[C@H](CO)NC(=O)[C@@H](NC(=O)[C@H](CC(=O)O)NC(=O)[C@H](CO)NC(=O)[C@@H](NC(=O)[C@H](Cc1ccccc1)NC(=O)[C@@H](NC(=O)CNC(=O)[C@H](CCC(N)=O)NC(=O)C(C)(C)NC(=O)[C@@H](N)Cc1c[nH]cn1)[C@@H](C)O)[C@@H](C)O)C(C)C)C(C)C)C(=O)N[C@@H](CCC(=O)O)C(=O)NCC(=O)NC(C)(C)C(=O)O` [Peptide 137] (H-H[Aib]QGTFTSDVSK[αMeF]LDSK([γGlu-γGlu-AEEA-AEEA-γGlu-γGlu-C18 diacid])RAQDFVRWLLEG[Aib]-OH; N-terminus assumed), the figures for the EC50 in assay [1] (setting [3]) and in assay [2] (setting [4]) were 0.268 nM and 0.143 nM, respectively. Further, the “% Relative Potency Ratio” value in assay [2] (Table 6) was found to be 3.7.

`CC[C@H](C)[C@H](NC(=O)[C@H](CO)NC(=O)[C@H](CCC(=O)O)NC(=O)[C@@H](NC(=O)[C@](C)(Cc1ccccc1)NC(=O)[C@H](CC(=O)O)NC(=O)[C@H](CCCCNC(=O)COCCOCCNC(=O)COCCOCCNC(=O)CC[C@H](NC(=O)CC[C@H](NC(=O)CCCCCCCCCCCCCCCCCCC(=O)O)C(=O)O)C(=O)O)NC(=O)[C@H](C)NC(=O)[C@H](C)NC(=O)[C@H](CCCNC(=N)N)NC(=O)[C@H](CO)NC(=O)[C@H](CC(=O)O)NC(=O)[C@H](CC(C)C)NC(=O)[C@](C)(Cc1ccccc1)NC(=O)[C@H](CCCCN)NC(=O)[C@H](CO)NC(=O)[C@@H](NC(=O)[C@H](CC(=O)O)NC(=O)[C@H](CO)NC(=O)[C@@H](NC(=O)[C@](C)(Cc1ccccc1)NC(=O)[C@H](CO)NC(=O)CNC(=O)[C@H](Cc1c[nH]cn1)NC(=O)C(C)(C)NC(=O)[C@@H](N)Cc1c[nH]cn1)[C@@H](C)O)C(C)C)C(C)C)C(=O)N[C@@H](C)C(=O)N[C@@H](CC(N)=O)C(=O)N[C@H](C(N)=O)[C@@H](C)O` [Peptide 246] (H-H[Aib]HGS[αMeF]TSDVSK[αMeF]LDSRAAK([AEEA-AEEA-γGlu-γGlu-C20 diacid])D[αMeF]VESIANT-NH2): the EC50 turned out to be 0.557 nM in assay [1] (Table 7, peptides modified at position 20, cAMP in CHO hGCGR cells) and 0.32 nM in assay [2] (Table 7, peptides modified at position 20, cAMP in CHO hGLP-1R cells). Moreover, in assay [2] (Table 7), the “% Relative Potency Ratio” value is listed as 3.4.

Take `CC(C)C[C@H](NC(=O)[C@H](Cc1c[nH]c2ccccc12)NC(=O)[C@H](CCCNC(=N)N)NC(=O)[C@@H](NC(=O)[C@H](Cc1ccccc1)NC(=O)[C@H](CC(=O)O)NC(=O)[C@H](CCC(N)=O)NC(=O)[C@H](C)NC(=O)[C@H](CCCNC(=N)N)NC(=O)[C@H](CCCCNC(=O)COCCOCCNC(=O)COCCOCCNC(=O)CC[C@H](NC(=O)CCCCCCCCCCCCCCCCCCC(=O)O)C(=O)O)NC(=O)[C@H](CO)NC(=O)[C@H](CC(=O)O)NC(=O)[C@H](CC(C)C)NC(=O)[C@](C)(Cc1ccccc1)NC(=O)[C@H](CCCCN)NC(=O)[C@H](CO)NC(=O)[C@@H](NC(=O)[C@H](CC(=O)O)NC(=O)[C@H](CO)NC(=O)[C@@H](NC(=O)[C@H](Cc1ccccc1)NC(=O)[C@@H](NC(=O)CNC(=O)[C@H](CCC(N)=O)NC(=O)C(C)(C)NC(=O)[C@@H](N)Cc1c[nH]cn1)[C@@H](C)O)[C@@H](C)O)C(C)C)C(C)C)C(=O)N[C@@H](CC(C)C)C(=O)NC(C)(C)C(=O)N[C@H](C(=O)N[C@@H](CCC(=O)O)C(=O)O)[C@@H](C)O` [Peptide 151] (H-H[Aib]QGTFTSDVSK[αMeF]LDSK([AEEA-AEEA-γGlu-C20 diacid])RAQDFVRWLL[Aib]TE-OH; N-terminus assumed): the EC50 in assay [1] (setting [3]) stood at 0.178 nM; in assay [2] (setting [4]), 0.111 nM. Also, in assay [2] (Table 6), the “% Relative Potency Ratio” value came out at 3.2.

Take `CC[C@H](C)[C@H](NC(=O)C(C)(C)NC(=O)[C@H](CCC(N)=O)NC(=O)[C@@H](NC(=O)[C@](C)(Cc1ccccc1)NC(=O)[C@H](CC(=O)O)NC(=O)[C@H](CCC(N)=O)NC(=O)[C@H](C)NC(=O)[C@H](C)NC(=O)[C@H](CCCCNC(=O)COCCOCCNC(=O)COCCOCCNC(=O)CC[C@H](NC(=O)CCCCCCCCCCCCCCCCC(=O)O)C(=O)O)NC(=O)[C@H](CO)NC(=O)[C@H](CC(=O)O)NC(=O)[C@H](CC(C)C)NC(=O)C(C)(C)NC(=O)[C@H](CCCCN)NC(=O)[C@H](CO)NC(=O)[C@@H](NC(=O)[C@H](CC(=O)O)NC(=O)[C@H](CO)NC(=O)[C@@H](NC(=O)[C@](C)(Cc1ccccc1)NC(=O)[C@H](CO)NC(=O)CNC(=O)[C@H](CCC(N)=O)NC(=O)[C@H](CO)NC(=O)[C@@H](N)Cc1c[nH]cn1)[C@@H](C)O)C(C)C)C(C)C)C(=O)N[C@@H](C)C(=O)N[C@@H](CC(N)=O)C(N)=O` [Peptide 108] (H-HSQGS[αMeF]TSDVSK[Aib]LDSK([AEEA-AEEA-γGlu-C18 diacid])AAQD[αMeF]VQ[Aib]IAN-NH2; N-terminus assumed): the concentration giving a half-maximal response (EC50) is above 27.1 nM in assay [1] (setting [3]) and 3.2 nM in assay [2] (setting [4]).

With `CC(C)C[C@H](NC(=O)[C@H](Cc1c[nH]c2ccccc12)NC(=O)[C@H](CCCNC(=N)N)NC(=O)[C@@H](NC(=O)[C@H](Cc1ccccc1)NC(=O)[C@H](CC(=O)O)NC(=O)[C@H](CCC(N)=O)NC(=O)[C@H](C)NC(=O)[C@H](CCCNC(=N)N)NC(=O)[C@H](CCCCNC(=O)COCCOCCNC(=O)COCCOCCNC(=O)CC[C@H](NC(=O)CCCCCCCCCCCCCCCCC(=O)O)C(=O)O)NC(=O)[C@H](CO)NC(=O)[C@H](CC(=O)O)NC(=O)[C@H](CC(C)C)NC(=O)[C@](C)(Cc1ccccc1)NC(=O)[C@H](CCCCN)NC(=O)[C@H](CO)NC(=O)[C@@H](NC(=O)[C@H](CC(=O)O)NC(=O)[C@H](CO)NC(=O)[C@@H](NC(=O)[C@H](Cc1ccccc1)NC(=O)[C@@H](NC(=O)CNC(=O)[C@H](CCC(N)=O)NC(=O)C(C)(C)NC(=O)[C@@H](N)Cc1c[nH]cn1)[C@@H](C)O)[C@@H](C)O)C(C)C)C(C)C)C(=O)N[C@@H](C)C(=O)N[C@@H](CO)C(=O)N[C@@H](CCCNC(=N)N)C(=O)O` [Peptide 146] (H-H[Aib]QGTFTSDVSK[αMeF]LDSK([AEEA-AEEA-γGlu-C18 diacid])RAQDFVRWLASR-OH; N-terminus assumed), the EC50 in assay [1] (setting [3]) turned out to be 1.63 nM; in assay [2] (setting [4]), 0.0246 nM. Also, the “% Relative Potency Ratio” value in assay [2] (Table 6) worked out at 131.3.

On to `CC[C@H](C)[C@H](NC(=O)C(C)(C)NC(=O)[C@H](CCCCNC(=O)COCCOCCNC(=O)COCCOCCNC(=O)CC[C@H](NC(=O)CCCCCCCCCCCCCCCCCCC(=O)O)C(=O)O)NC(=O)[C@@H](NC(=O)[C@H](Cc1ccccc1)NC(=O)[C@H](CC(=O)O)NC(=O)[C@H](CCC(N)=O)NC(=O)[C@H](C)NC(=O)[C@H](C)NC(=O)[C@H](CCCNC(=N)N)NC(=O)[C@H](CO)NC(=O)[C@H](CC(=O)O)NC(=O)[C@H](CC(C)C)NC(=O)[C@](C)(Cc1ccccc1)NC(=O)[C@H](CCCCN)NC(=O)[C@H](CO)NC(=O)[C@@H](NC(=O)[C@H](CC(=O)O)NC(=O)[C@H](CO)NC(=O)[C@@H](NC(=O)[C@](C)(Cc1ccccc1)NC(=O)[C@H](CO)NC(=O)CNC(=O)[C@H](Cc1c[nH]cn1)NC(=O)C(C)(C)NC(=O)[C@@H](N)Cc1c[nH]cn1)[C@@H](C)O)C(C)C)C(C)C)C(=O)N[C@@H](C)C(=O)N[C@@H](CC(N)=O)C(=O)N[C@H](C(N)=O)[C@@H](C)O` [Peptide 369] (H-H[Aib]HGS[αMeF]TSDVSK[αMeF]LDSRAAQDFVK([AEEA-AEEA-γGlu-C20 diacid])[Aib]IANT-NH2; N-terminus assumed), for which the EC50 in assay [1] (cAMP, CHO cells, 0.1% BSA) came to 0.202 nM; in assay [2] (cAMP, CHO cells, 0.1% BSA), 0.104 nM. For the same compound, the “% Relative Potency Ratio” value in assay [2] came to 3.8.

In the case of `CC[C@H](C)[C@H](NC(=O)[C@H](CO)NC(=O)[C@H](CCC(=O)O)NC(=O)[C@@H](NC(=O)[C@](C)(Cc1ccccc1)NC(=O)[C@H](CC(=O)O)NC(=O)[C@H](CCC(N)=O)NC(=O)[C@H](C)NC(=O)[C@H](C)NC(=O)[C@H](CCCCNC(=O)CC[C@H](NC(=O)CCCCCCCCCCCCCCCCC(=O)O)C(=O)O)NC(=O)[C@H](CO)NC(=O)[C@H](CC(=O)O)NC(=O)[C@H](CC(C)C)NC(=O)[C@](C)(Cc1ccccc1)NC(=O)[C@H](CCCCN)NC(=O)[C@H](CO)NC(=O)[C@@H](NC(=O)[C@H](CC(=O)O)NC(=O)[C@H](CO)NC(=O)[C@@H](NC(=O)[C@](C)(Cc1ccccc1)NC(=O)[C@H](CO)NC(=O)CNC(=O)[C@H](Cc1c[nH]cn1)NC(=O)C(C)(C)NC(=O)[C@@H](N)Cc1c[nH]cn1)[C@@H](C)O)C(C)C)C(C)C)C(=O)N[C@@H](C)C(=O)N[C@@H](CC(N)=O)C(=O)N[C@H](C(N)=O)[C@@H](C)O` [Peptide 21] (H-H[Aib]HGS[αMeF]TSDVSK[αMeF]LDSK([γGlu-C18 diacid])AAQD[αMeF]VESIANT-NH2; N-terminus assumed), the EC50 in assay [1] (setting [3]) came out at 0.0688 nM; in assay [2] (setting [4]) it was 0.378 nM. In addition, the “% Relative Potency Ratio” value in assay [2] (Table 6) came to 0.4.
